# Measurements published in article PMC12926254, “Novel pyrazole carboxylate derivatives as lonazolac bioisosteres with selective COX-2 inhibition: design, synthesis and anti-inflammatory activity” (Molecular Diversity, 2025).
# Marks after values point to notes of the source that are not given here.
# Columns and labels:
# gastric mucosa = assay: Ulcerogenic liability (ulcer index); type: in vivo; settings: 50 mg/kg orally, three successive days, rats
# Method: […]. […] Rats were divided into 7 groups and fasted for 18 h before drug administration. The control group received the vehicle (2.5% Tween 80). […] After 2 h, animals were fed. Rats were given the required dose orally for three successive days. After 2 h of the last dose, rats were sacrificed; the stomach of each rat was removed then opened along the greater curvature and rinsed with saline. In order to examine the stomach, it was stretched by pins on a corkboard. The gastric mucosa was carefully inspected for the occurrence of ulcers with the aid of an illuminated magnifying lens (l0x), then ulcer index was calculated according to the method described by Cho and Ogle. Lesions were counted and measured along the greater diameter using transparent ruler. Every five hemorrhagic spots were considered equivalent to 1 mm of ulcer. The ulcer index (mm) was calculated from the sum of the total length of ulcers and hemorrhagic spots in each stomach.
# 15-LOX = target: T1, 15-LOX (Glycine max, UniProt P08170); assay: In vitro 15-LOX inhibition (Lipoxygenase Inhibitor Screening assay Kit 760700, Cayman); type: biochemical; settings: mean of six values ± standard deviation
# T1 construct: purchased Cayman Chemical 760,700
# T1 sequence (P08170 1-839): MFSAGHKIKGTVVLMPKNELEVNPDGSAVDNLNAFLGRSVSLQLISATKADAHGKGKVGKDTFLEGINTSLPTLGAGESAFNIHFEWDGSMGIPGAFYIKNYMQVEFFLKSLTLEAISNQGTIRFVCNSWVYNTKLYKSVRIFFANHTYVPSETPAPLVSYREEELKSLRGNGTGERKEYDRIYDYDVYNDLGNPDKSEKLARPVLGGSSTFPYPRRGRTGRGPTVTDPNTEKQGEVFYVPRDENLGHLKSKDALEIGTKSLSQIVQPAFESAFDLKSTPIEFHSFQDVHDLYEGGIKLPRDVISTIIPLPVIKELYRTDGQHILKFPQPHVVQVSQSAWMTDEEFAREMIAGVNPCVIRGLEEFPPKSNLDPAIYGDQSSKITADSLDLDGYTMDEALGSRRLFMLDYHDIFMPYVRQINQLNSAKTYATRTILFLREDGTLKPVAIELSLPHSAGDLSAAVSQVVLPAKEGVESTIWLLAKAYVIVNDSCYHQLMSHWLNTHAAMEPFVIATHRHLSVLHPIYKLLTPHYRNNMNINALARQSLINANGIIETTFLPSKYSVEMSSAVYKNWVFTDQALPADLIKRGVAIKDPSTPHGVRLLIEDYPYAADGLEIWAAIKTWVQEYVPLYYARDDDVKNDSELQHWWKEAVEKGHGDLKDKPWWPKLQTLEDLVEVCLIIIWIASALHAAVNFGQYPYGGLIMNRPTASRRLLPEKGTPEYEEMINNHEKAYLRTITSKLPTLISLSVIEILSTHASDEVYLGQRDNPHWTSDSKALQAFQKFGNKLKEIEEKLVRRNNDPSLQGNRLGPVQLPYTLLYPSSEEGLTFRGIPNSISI
# Method: 15-LOX inhibitor screening protocol: Blank wells: 100 µl of assay buffer was added to at least two wells, Positive control wells: 90 µl of 15-LOX standard was added to 10 µl of assay buffer to at least two wells, 100% initial activity wells: 90 µl of Lipoxygenase enzyme was added to 10 µl of solvent to at least two wells, Inhibitor wells: 90 µl of Lipoxygenase enzyme was added to 10 µl of inhibitor wells to. It was incubated for five minutes at room temperature. The reaction was initiated by adding 10 µl of substrate to all the wells. 96well-plates were placed on a shaker for at least 10 min. 100 µl of chromogen was added to each well to stop the enzyme catalysis. The reaction was covered with plate cover. 96well-plates were placed on a shaker for at least 5 min. The cover was removed and absorbance was read using plate reader at absorbance 490–500 nm.
# TNF-α = TNF-α production in LPS-activated RAW 264.7 macrophages (ELISA); settings: Mus musculus, RAW264.7, read-out: TNF-α IC50
# iNOS = assay: Inducible nitric oxide synthase (iNOS) inhibition in LPS-induced RAW 264.7 cells (ELISA); type: cell-based; settings: Mus musculus, RAW264.7
# Source text: NO is produced from L-arginine by iNOS and is utilized in a variety of cell signaling processes. An inducible member of the NOS family, iNOS is increased during pro-inflammatory cytokine activity as a host-defense mechanism. A commercially available quantitative ELISA kit (ab253219 Mouse iNOS Simple Step ELISA® Kit) will be used to evaluate the iNOS enzyme activity of the substances in the cell lysate in accordance with the manufacturer’s instructions.
# 5-LOX = target: T2, 5-LOX (Homo sapiens, UniProt P09917); assay: In vitro 5-LOX inhibition (5-Lipoxygenase Inhibitor Screening Kit K980-100, Biovision)
# T2 sequence (P09917 1-674): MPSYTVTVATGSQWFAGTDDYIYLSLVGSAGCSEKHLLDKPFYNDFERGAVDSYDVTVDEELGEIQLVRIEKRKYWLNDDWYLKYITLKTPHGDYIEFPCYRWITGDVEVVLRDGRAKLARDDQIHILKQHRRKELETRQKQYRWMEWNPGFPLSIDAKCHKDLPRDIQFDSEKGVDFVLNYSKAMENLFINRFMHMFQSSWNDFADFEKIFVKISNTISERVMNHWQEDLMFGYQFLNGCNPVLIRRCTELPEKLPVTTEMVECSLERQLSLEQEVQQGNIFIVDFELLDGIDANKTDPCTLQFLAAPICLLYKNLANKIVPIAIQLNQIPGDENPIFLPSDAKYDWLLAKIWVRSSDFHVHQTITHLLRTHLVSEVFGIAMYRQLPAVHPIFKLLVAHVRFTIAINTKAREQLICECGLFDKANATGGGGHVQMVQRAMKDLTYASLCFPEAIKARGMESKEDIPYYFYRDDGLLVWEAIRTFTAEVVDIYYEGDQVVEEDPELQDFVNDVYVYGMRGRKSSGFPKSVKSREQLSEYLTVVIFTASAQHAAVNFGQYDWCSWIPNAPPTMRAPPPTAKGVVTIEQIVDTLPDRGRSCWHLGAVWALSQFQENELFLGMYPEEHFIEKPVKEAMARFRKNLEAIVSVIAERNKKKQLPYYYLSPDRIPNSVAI
# Method: 5-LOX inhibitor Screening Protocol: dissolve the test compounds in DMSO. The solution was prepared at a concentration so that the final 100 µl reaction volume per well contains no more than 2 µl of the test chemical solution added to it. Each well was filled in the 96-well white plate with 2 µl of the test substance. […] To the “Enzyme Control” well, was filled with 40 µl of LOX Assay Buffer. In order to run the required number of assays, enough reagents were mixed. 40 µl of the following mix was prepared for each well: Buffer for Reaction MIx LOX Assay 34 µl LOX Probe 2 µl 5. LOX Enzyme 4 µl After thoroughly mixing, the Reaction Mix was transferred to the wells holding the Test Compounds, Enzyme Control, Inhibitor Control, and “Solvent Control.” substrate was added after 10 min of RT incubation of the plate. The wells shouldn’t contain any bubbles. […] To obtain the 5X solution, the 500 X solution with LOX Assay Buffer was diluted at a ratio of 1:100, depending on the number of reactions to be conducted. For each reaction, 20 µl of 5X solution will be required. How much substrate is needed based on the number of reactions. The final substrate functioning solution needs to be consumed that same day and stored on ice. The remaining stock solution should be immediately stored at -20 °C. 20 µl of 5X LOX Substrate should be added with a multichannel pipette to every well. […] To get the RFU for each sample, the RFU was subtracted at time t1 from the RFU at time t2, making sure that both t2 and t1 fall within the assay's linear range. The slope for each sample (including the “enzyme control”)was multiplied by the time Δt (t2 – t1) to find the ΔRFU. In the equations below, the values was substituted for “Solvent Control” for “Enzyme Control” if the two slopes disagree. %Inhibition=[slopeof(enzymecontrol)-slopeof(testcompound)]/slopeof(enzymecontrol)×100 %Relativeactivity=[slope(testcompound)]/slope(enzymecontrol)×100
Structure (SMILES),% incidence /10 (gastric mucosa),Average no of ulcer (gastric mucosa),Average severity (gastric mucosa),IC50 (15-LOX) [nM],IC50 (TNF-α) [nM],IC50 (iNOS) [nM],IC50 (5-LOX) [nM]
"CCOC(=O)COc1ccc(C2=NN(c3ccc(S(C)(=O)=O)cc3)C(c3ccc(OC)cc3)C2)cc1 (stereo not drawn) [Compound 15c, Ethyl 2-(4-(5-(4-methoxyphenyl)-1-(4-(methylsulfonyl)phenyl)-4,5-dihydro-1H-pyrazol-3-yl)phenoxy)acetate]",2,0.55 ± 0.012***^b,0.17 ± 0.004***^b,412 ± 16,770 ± 25,410 ± 60,453 ± 18
"CCOC(=O)COc1ccc(C2=NN(c3ccc(S(C)(=O)=O)cc3)C(c3cc(OC)c(OC)c(OC)c3)C2)cc1 (stereo not drawn) [Compound 15d, Ethyl 2-(4-(1-(4-(methylsulfonyl)phenyl)-5-(3,4,5-trimethoxyphenyl)-4,5-dihydro-1H-pyrazol-3-yl)phenoxy)acetate]",2,0.47 ± 0.006^b,0.51 ± 0.013^b,2230 ± 87,1200 ± 60,531 ± 50,241 ± 9
"CCOC(=O)COc1ccc(C2=NN(c3ccc(S(C)(=O)=O)cc3)C(c3ccc(Br)cc3)C2)cc1 (stereo not drawn) [Compound 15 h, Ethyl 2-(4-(5-(4-bromophenyl)-1-(4-(methylsulfonyl)phenyl)-4,5-dihydro-1H-pyrazol-3-yl)phenoxy)acetate]",2,0.40 ± 0.006^b,0.29 ± 0.009***^b,488 ± 19,1040 ± 42,610 ± 130,813 ± 32
